These are literature values, as cited in PMC9851200, “Multiparameter phenotypic screening for endogenous TFEB and TFE3 translocation identifies novel chemical series modulating lysosome function” (Autophagy, 2022).

What all share (set-up): method as in original PKIS2 published data
Data set [1] deals with T1, kinases (KINOMEscan panel) (Homo sapiens, UniProt Q8N752).
T1 sequence (Q8N752 1-337): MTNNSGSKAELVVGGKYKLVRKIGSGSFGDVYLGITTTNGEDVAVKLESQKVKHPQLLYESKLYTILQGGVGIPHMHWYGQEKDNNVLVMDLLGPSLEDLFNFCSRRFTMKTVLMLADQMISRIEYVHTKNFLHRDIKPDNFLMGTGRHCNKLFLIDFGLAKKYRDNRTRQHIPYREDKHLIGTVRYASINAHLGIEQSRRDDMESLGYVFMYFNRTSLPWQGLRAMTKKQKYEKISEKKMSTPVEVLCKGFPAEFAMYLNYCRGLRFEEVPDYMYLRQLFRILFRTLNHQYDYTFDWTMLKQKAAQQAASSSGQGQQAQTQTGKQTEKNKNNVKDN
To be noted: CSNK1A1L; Published KINOMEscan; ref original PKIS2 published data; cited from earlier work.

For data set [2], the target named is T2, kinases (KINOMEscan panel) (Homo sapiens, UniProt Q06418).
T2 sequence (Q06418 41-890): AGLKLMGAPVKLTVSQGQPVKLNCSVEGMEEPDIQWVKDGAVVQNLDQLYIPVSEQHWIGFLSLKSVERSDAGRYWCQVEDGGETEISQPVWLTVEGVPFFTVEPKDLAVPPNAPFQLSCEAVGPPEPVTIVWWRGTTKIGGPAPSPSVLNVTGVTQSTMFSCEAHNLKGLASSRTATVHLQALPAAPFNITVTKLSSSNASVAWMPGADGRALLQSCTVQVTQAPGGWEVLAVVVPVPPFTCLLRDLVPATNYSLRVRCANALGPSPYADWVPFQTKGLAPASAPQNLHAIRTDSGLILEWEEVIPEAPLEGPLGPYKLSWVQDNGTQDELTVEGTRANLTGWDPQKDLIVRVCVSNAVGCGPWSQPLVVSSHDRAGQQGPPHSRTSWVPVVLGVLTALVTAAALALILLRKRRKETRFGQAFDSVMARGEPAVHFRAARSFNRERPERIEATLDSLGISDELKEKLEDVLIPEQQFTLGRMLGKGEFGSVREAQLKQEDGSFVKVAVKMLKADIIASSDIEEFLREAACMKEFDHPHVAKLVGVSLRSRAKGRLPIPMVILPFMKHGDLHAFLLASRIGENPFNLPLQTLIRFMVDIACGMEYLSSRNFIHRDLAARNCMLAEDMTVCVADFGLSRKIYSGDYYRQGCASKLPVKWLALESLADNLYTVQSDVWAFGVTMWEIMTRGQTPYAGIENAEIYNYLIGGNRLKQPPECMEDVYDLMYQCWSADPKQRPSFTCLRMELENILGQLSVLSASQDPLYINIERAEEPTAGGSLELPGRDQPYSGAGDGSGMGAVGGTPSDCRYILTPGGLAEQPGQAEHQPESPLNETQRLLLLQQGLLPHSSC
To be noted: Published KINOMEscan; ref original PKIS2 published data; cited from earlier work.

In data set [3] the target is T3, kinases (KINOMEscan panel) (Homo sapiens, UniProt O15075).
T3 sequence (O15075 1-740): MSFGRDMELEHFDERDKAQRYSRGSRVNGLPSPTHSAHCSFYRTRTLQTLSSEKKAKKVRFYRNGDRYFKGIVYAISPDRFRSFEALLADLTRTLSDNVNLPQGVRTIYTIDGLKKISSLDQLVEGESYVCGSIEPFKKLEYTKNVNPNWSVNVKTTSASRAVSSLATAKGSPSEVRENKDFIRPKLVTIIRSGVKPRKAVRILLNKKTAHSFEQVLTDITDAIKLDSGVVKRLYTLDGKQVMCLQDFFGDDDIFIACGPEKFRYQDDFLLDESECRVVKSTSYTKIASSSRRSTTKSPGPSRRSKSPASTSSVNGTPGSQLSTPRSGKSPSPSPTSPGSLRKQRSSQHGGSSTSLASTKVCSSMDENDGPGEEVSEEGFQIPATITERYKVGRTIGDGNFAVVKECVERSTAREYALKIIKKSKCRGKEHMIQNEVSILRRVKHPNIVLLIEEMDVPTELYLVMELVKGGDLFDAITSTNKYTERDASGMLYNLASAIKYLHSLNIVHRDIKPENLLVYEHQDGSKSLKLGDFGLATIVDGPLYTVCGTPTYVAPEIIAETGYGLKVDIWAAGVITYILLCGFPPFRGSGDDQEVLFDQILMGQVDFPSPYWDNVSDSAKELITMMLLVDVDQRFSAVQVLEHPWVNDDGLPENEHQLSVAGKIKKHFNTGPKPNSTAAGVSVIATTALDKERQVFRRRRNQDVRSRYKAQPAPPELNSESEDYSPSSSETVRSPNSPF
To be noted: Published KINOMEscan; ref original PKIS2 published data; cited from earlier work.

The structures appear in SMILES notation.

Consider `Cc1cccc(-c2nc(Nc3ccncc3)c3ccccc3n2)n1` [NK215], for which the “KINOMEscan CSNK1A1L” value in data set [1] is 10. In addition, the “KINOMEscan TYRO3” value in data set [2] was 0. In addition, the “KINOMEscan DCLK1” value in data set [3] is reported as 14.
